From US7348336B2 (Sanofi-Aventis Deutschland GmbH, priority 2000, dated 2008)
Structures can show the parent of a compound that is named as a salt.

Each molecule was assayed against T1, IκBα-kinase complex (Homo sapiens, UniProt O14920+O15111) (assay: IkB-Kinase ELISA). Conditions: IkB-kinase IC50.
T1 construct: endogenous in cells; host or cells: HeLa S3 cell extract, S100 fraction; ammonium sulfate precipitation and Superose-6 size exclusion
Type: biochemical
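Also: substrate phosphopeptide captured on Protein-A plates, detected with Streptavidin-HRP and TMB absorbance at 450 nm, activity read from a synthetic phosphopeptide standard curve.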

T1 sequence (O14920 whole entry): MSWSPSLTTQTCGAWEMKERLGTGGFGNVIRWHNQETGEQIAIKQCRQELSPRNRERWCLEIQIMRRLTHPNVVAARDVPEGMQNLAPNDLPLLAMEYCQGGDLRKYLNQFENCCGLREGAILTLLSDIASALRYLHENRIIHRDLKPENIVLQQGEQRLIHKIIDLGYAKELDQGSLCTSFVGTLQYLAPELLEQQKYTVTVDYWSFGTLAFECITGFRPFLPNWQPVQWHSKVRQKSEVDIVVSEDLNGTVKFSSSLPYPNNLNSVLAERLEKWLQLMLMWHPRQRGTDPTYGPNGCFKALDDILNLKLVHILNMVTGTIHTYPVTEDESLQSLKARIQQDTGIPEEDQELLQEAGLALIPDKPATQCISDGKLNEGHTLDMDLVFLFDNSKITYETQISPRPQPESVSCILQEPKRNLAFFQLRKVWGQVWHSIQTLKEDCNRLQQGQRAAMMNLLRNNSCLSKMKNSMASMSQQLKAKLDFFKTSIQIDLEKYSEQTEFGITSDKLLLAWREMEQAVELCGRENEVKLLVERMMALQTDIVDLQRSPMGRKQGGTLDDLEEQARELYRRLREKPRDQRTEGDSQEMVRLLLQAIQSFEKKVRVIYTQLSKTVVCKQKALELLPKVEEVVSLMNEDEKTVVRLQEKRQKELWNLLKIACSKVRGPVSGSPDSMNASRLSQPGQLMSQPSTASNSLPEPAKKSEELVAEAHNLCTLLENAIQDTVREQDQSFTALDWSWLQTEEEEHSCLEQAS
T1 sequence (O15111 whole entry): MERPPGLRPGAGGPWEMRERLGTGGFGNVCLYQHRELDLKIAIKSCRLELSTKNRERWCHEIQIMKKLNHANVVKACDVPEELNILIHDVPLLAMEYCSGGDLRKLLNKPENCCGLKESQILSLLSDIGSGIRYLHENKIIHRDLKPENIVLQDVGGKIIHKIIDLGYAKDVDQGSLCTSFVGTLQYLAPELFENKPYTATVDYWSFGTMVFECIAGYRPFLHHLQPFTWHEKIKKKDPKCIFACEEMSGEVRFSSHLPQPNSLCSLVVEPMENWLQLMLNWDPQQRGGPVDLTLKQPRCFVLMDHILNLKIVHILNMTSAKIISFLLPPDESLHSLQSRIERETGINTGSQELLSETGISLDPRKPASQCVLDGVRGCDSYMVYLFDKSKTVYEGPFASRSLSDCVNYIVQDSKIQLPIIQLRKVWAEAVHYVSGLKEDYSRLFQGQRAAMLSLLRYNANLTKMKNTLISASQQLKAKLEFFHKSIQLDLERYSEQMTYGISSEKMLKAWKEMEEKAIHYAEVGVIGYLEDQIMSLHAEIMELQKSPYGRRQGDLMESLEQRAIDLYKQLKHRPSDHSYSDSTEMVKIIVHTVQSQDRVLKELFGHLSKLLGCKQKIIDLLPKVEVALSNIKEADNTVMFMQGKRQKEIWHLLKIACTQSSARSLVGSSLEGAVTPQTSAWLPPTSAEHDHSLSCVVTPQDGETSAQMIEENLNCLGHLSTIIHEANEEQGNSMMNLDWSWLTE
T1 sequence (Q9Y6K9 whole entry partner): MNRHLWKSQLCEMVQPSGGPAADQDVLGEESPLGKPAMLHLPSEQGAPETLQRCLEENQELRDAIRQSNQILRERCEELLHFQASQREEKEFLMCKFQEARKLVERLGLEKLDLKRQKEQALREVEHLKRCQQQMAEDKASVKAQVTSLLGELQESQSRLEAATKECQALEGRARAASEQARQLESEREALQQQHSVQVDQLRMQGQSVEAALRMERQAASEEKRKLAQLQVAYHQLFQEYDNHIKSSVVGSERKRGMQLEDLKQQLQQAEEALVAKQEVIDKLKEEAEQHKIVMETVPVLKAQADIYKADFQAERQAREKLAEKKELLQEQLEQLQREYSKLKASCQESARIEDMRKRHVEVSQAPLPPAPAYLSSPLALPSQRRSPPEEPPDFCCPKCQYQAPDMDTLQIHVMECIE

`CN(C)c1cc(Cl)cc2c1[nH]c1cnccc12` [Example 44, trifluoroacetate] was tested, and the IC50 was 2 µM.

Same assay, conditions: activated IκBα kinase complex from HeLa S3 cell extracts; ELISA; read-out: IkB-kinase IC50

First: Brc1ccc2[nH]c3cnccc3c2c1 [Example 1]
Second: Fc1ccc2c(c1)[nH]c1cnccc12 [Example 31]
The IC50 of the first is 8.2-fold lower: 0.4 µM for the first, 3.3 µM for the second.

First: CC(=O)n1c2ccc(Br)cc2c2ccncc21 [Example 2]
Second: Cn1c2ccc(Br)cc2c2ccncc21 [Example 11]
The IC50 of the first is 1.7-fold lower: 0.4 µM for the first, 0.7 µM for the second.

Compared with `Clc1cc(Cl)c2[nH]c3cnccc3c2c1` [Example 9], `Nc1cc(Cl)cc2c1[nH]c1cnccc12` [Example 15] is 4-fold higher in IC50: 0.2 µM for the first, 0.8 µM for the second.

Going from `CS(=O)(=O)n1c2ccc(Br)cc2c2ccncc21` [Example 10] to `O=C(N1CCOCC1)n1c2ccc(Br)cc2c2ccncc21` [Example 17], the IC50 rises from 0.4 µM to 5 µM (12-fold). The first is the more potent here.

First: O=[N+]([O-])c1cc(Cl)cc2c1[nH]c1cnccc12 [Example 14]
Second: CNc1cc(Cl)cc2c1[nH]c1cnccc12 [Example 43, trifluoroacetate]
The IC50 of the first is 4-fold higher: 4 µM for the first, 1 µM for the second.

Compared with `CCOC(=O)Cn1c2ccc(Cl)cc2c2ccncc21` [Example 18], `NC(=O)Cn1c2ccc(Cl)cc2c2ccncc21` [Example 22] is 1.5-fold lower in IC50: 23 µM for the first, 15 µM for the second.

Compared with `OCCn1c2ccc(Cl)cc2c2ccncc21` [Example 19], `CC(C)CC(=O)Nc1cc(Cl)cc2c1[nH]c1cnccc12` [Example 55, trifluoroacetate] is 3.8-fold lower in IC50: 3 µM for the first, 0.8 µM for the second. The second is the more potent here.

Compared with `Cc1nccc2c1[nH]c1cc(OCC(=O)OC(C)(C)C)ccc12` [Example 25], `CCOc1ccc2c(c1)[nH]c1c(C)nccc12` [Example 27] is 6.9-fold lower in IC50: 31 µM for the first, 4.5 µM for the second.

First: Cc1nccc2c1[nH]c1cc(OCc3ccccc3)ccc12 [Example 26]
Second: CC(=O)Oc1ccc2c(c1)[nH]c1c(C)nccc12 [Example 29]
The IC50 of the first is 3.3-fold lower: 12 µM for the first, 40 µM for the second.

Compared with `Cc1nccc2c1[nH]c1ccc(Br)cc12` [Example 28], `COc1cc2[nH]c3c(C)nccc3c2cc1Br` [Example 32] is 2.4-fold lower in IC50: 11 µM for the first, 4.6 µM for the second.

First: Fc1cc2[nH]c3cnccc3c2cc1Cl [Example 34]
Second: Oc1c(Cl)cc2c([nH]c3cnccc32)c1Cl [Example 38]
The IC50 of the first is 11-fold lower: 1 µM for the first, 11 µM for the second. The first is the more potent here.

Going from `COc1ccc2c([nH]c3cnccc32)c1Cl` [Example 36, trifluoroacetate] to `COc1c(Cl)cc2c([nH]c3cnccc32)c1Cl` [Example 37, trifluoroacetate], the IC50 falls from 1.4 µM to 0.15 µM (9.3-fold). The second is the more potent here.

First: CCOc1c(Cl)cc2c([nH]c3cnccc32)c1Cl [Example 39]
Second: CC(C)(C)C(=O)Oc1c(Cl)cc2c([nH]c3cnccc32)c1Cl [Example 58]
The IC50 of the first is 3.3-fold lower: 0.1 µM for the first, 0.33 µM for the second. The first is the more potent here.

First: Fc1cc2[nH]c3cnccc3c2cc1Cl [Example 40, trifluoroacetate]
Second: CS(=O)(=O)Nc1cc(Cl)cc2c1[nH]c1cnccc12 [Example 45, trifluoroacetate]
The IC50 of the first is 4.2-fold lower: 2 µM for the first, 8.3 µM for the second. The first is the more potent here.

`CC(=O)N(C)c1cc(Cl)cc2c1[nH]c1cnccc12` [Example 48, trifluoroacetate] and `CC(C)(C)C(=O)Nc1cc(Cl)cc2c1[nH]c1cnccc12` [Example 57] are within 1.5-fold of each other in IC50: 4 µM for the first, 4.3 µM for the second.

`COCC(=O)Nc1cc(Cl)cc2c1[nH]c1cnccc12` [Example 51, trifluoroacetate] and `COc1cccc(C(=O)Nc2cc(Cl)cc3c2[nH]c2cnccc23)c1` [Example 52, 7-chloro-9-(3-methoxybenzoxylamino)-β-carboline trifluoroacetate] are the same in IC50: 0.6 µM for the first, 0.6 µM for the second.

Compared with `COc1ccc(C(=O)Nc2cc(Cl)cc3c2[nH]c2cnccc23)cc1` [Example 53, 7-chloro-9-(4-methoxybenzoxylamino)-β-carboline trifluoroacetate], `O=C(Nc1cc(Cl)cc2c1[nH]c1cnccc12)c1ccncc1` [Example 56] is 5.2-fold lower in IC50: 1.4 µM for the first, 0.27 µM for the second.

Compared with `O=C(Oc1c(Cl)cc2c([nH]c3cnccc32)c1Cl)N1CCOCC1` [Example 59], `O=C(Nc1cc(Cl)cc2c1[nH]c1cnccc12)c1ccccc1F` [Example 61] is 3.4-fold lower in IC50: 3.2 µM for the first, 0.94 µM for the second.

`O=C(Nc1cc(Cl)cc2c1[nH]c1cnccc12)c1cccnc1` [Example 60, N-(6-Chloro-9H-β-carbolin-8-yl)-nicotinamide] showed an IC50 of 0.052 µM.
